Assay [1] relates to SK-CO-1 cells. Put plainly: SK-CO-1 CTG proliferation assay (120 h) (CRC, G12V). Particulars: Homo sapiens; SK-CO-1 cells (CRC, G12V), CTG 120 h. The assay is classed as cell-based. The gist of the method:
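Compound exposure lasted 120 h in KRAS G12V SK-CO-1 cells seeded overnight at 500 cells/well in 10% FCS EMEM. CellTiter-Glo RLU normalised to DMSO wells gave percent viability, and a four-parameter model fit yielded IC50.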

For assay [2], the target named is KRAS (G12C)::SOS1 (Homo sapiens (Human), UniProt P01116, C118S/C51S/C80L/G12C). Put plainly: KRAS::SOS1 AlphaScreen binding assay, KRAS G12C. The gist of the method:
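AlphaScreen measurement of compound disruption of biotinylated, GDP-loaded KRAS 1-169 (10 nM; G12C 7.5 nM) binding to GST-SOS1 564-1049 (5 nM with G12D/G12C, 10 nM otherwise), with 10 μM GDP in PBS/0.1% BSA/0.05% Tween 20. Timing was 30 min compound preincubation, then 60 min with beads at room temperature; top concentration 100 μM, 4-parameter IC50.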
In general terms: In Alpha technology, singlet oxygen from a donor bead excites a nearby acceptor bead.

The results in this text go back to patent publication US20240174690A1, “ANNULATED 2-AMINO-3-CYANO THIOPHENES AND DERIVATIVES FOR THE TREATMENT OF CANCER” (BOEHRINGER INGELHEIM INTERNATIONAL GMBH, priority 2021, published 2024).

Chain of KRAS (G12C)::SOS1 (P01116 other isoform, or with tags, fused parts or gaps G12C/C51S/C80L/C118S): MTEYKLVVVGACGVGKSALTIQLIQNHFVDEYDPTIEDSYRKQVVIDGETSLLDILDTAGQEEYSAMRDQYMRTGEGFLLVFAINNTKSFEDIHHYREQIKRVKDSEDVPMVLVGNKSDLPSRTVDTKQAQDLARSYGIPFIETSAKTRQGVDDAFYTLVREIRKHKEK

In general, IC50 refers to the concentration needed to halve the response being measured. Consider `C[C@H](Oc1cc(N2CCN(C)C3(CC3)C2)nc(-c2onc3c2CCC[C@@]32CCCc3sc(N)c(C#N)c32)n1)[C@@H]1CCCN1C` [I-41], for which the results for the IC50 in assay [1] and in assay [2] were 2760 nM and 6 nM, respectively.

As to `C[C@H](Oc1cc(N2CCN(CCO)CC2)nc(-c2noc3c2CCC[C@@]32CCCc3sc(N)c(C#N)c32)n1)[C@@H]1CCCN1C` [II-8], the results for the IC50 in assay [1] and in assay [2] were 692 nM and 3 nM, respectively.

As to `C[C@H](Oc1cc(N2CC3CCC(C2)N3)nc(-c2noc3c2CCC[C@@]32CCCc3sc(N)c(C#N)c32)n1)[C@@H]1CCCN1C` [II-34], the IC50 in assay [1] stood at 1240 nM; in assay [2], 3 nM.

Regarding `C[C@H]1CN(C)CCCN1c1nc(-c2onc3c2CCC[C@@]32CCCc3sc(N)c(C#N)c32)cc(N2CCN(C)C3(CC3)C2)n1` [I-42], the IC50 in assay [2] turned out to be 606 nM.

`C[C@H](Oc1cc(N2CC[C@@H](N(C)C)C2)nc(-c2noc3c2CCC[C@@]32CCCc3sc(N)c(C#N)c32)n1)[C@@H]1CCCN1C` [II-47]: the IC50 in assay [1] turned out to be 600 nM; in assay [2], 4 nM.

Regarding `CO[C@@H]1C[C@@H]([C@H](C)Oc2cc(-c3ccn(C)n3)nc(-c3onc4c3CCC[C@@]43CCCc4sc(N)c(C#N)c43)n2)N(C)C1` [I-23], the IC50 in assay [1] came to 139 nM; in assay [2], 3 nM.

`C[C@H](Oc1nc(-c2noc3c2CCC[C@@]32CCCc3sc(N)c(C#N)c32)cc(N2C[C@H](C)N[C@@H](C)C2)n1)[C@@H]1CCCN1C` [II-46]: the IC50 in assay [1] stood at 655 nM; in assay [2] it was 37 nM.

Turning to `C[C@H](Oc1cc(N2CCN(C)C3(COC3)C2)nc(-c2noc3c2CCC[C@@]32CCCc3sc(N)c(C#N)c32)n1)[C@@H]1CCCN1C` [II-13], the IC50 stood at 896 nM in assay [1] and 2 nM in assay [2].

`C[C@H](Oc1cc(-c2ccn(C[C@@H](C)O)n2)nc(-c2onc3c2CCC[C@@]32CCCc3sc(N)c(C#N)c32)n1)[C@@H]1CCCN1C` [I-30]: the IC50 came to 31 nM in assay [1] and 2 nM in assay [2].

Regarding `C[C@H](Oc1cc(-c2cnn(C)n2)nc(-c2noc3c2CCC[C@@]32CCCc3sc(N)c(C#N)c32)n1)[C@@H]1C[C@@H](F)CN1C` [II-28], the IC50 in assay [1] was 433 nM; in assay [2], 7 nM.

Take `C[C@H](Oc1cc(N2CCNC3(CCC3)C2)nc(-c2onc3c2CCC[C@@]32CCCc3sc(N)c(C#N)c32)n1)[C@@H]1CCCN1C` [I-3]: the IC50 in assay [1] amounted to 2090 nM; in assay [2], 3 nM.

Regarding `C[C@H](Oc1cc(-c2cnsc2)nc(-c2onc3c2CCC[C@@]32CCCc3sc(N)c(C#N)c32)n1)[C@@H]1CCCN1C` [I-27], the IC50 in assay [1] turned out to be 52 nM; in assay [2], 2 nM.

Take `C[C@H](Oc1cc(N2CCNC3(CCC3)C2)nc(-c2noc3c2CCC[C@@]32CCCc3sc(N)c(C#N)c32)n1)[C@@H]1CCCN1C` [II-40]: the IC50 stood at 488 nM in assay [1] and 3 nM in assay [2].

For `C[C@H](Oc1cc(N2CCN(C)C3(CC3)C2)nc(-c2onc3c2CCC[C@@]32CCCc3sc(N)c(C#N)c32)n1)[C@@H]1C[C@@H](F)CN1C` [I-39], the IC50 was 2070 nM in assay [1] and 10 nM in assay [2].

`CNC(=O)c1ccn(-c2cc(O[C@@H](C)[C@@H]3CCCN3C)nc(-c3noc4c3CCC[C@@]43CCCc4sc(N)c(C#N)c43)n2)n1` [II-20]: the IC50 is 9 nM in assay [1] and 1 nM in assay [2].

In turn, `C[C@H](Oc1nc(-c2onc3c2CCC[C@@]32CCCc3sc(N)c(C#N)c32)cc(N2CCNC3(CC3)C2)n1)[C@@H]1CCCN1C` [I-2] showed an IC50 in assay [2] of 45 nM.

`C[C@H](O)Cn1ccc(-c2cc(O[C@@H](C)[C@@H]3CCCN3C)nc(-c3onc4c3CCC[C@@]43CCCc4sc(N)c(C#N)c43)n2)n1` [I-31] came in with an IC50 in assay [2] of 2 nM.

In assay [2], `C[C@H](Oc1nc(-c2onc3c2CCC[C@@]32CCCc3sc(N)c(C#N)c32)cc(N2CCN(C)C3(CC3)C2)n1)[C@@H]1CCCN1C` [I-40] displayed an IC50 of 88 nM.

In assay [1], `C[C@H](Oc1cc(-n2ccsc2=O)nc(-c2noc3c2CCC[C@@]32CCCc3sc(N)c(C#N)c32)n1)[C@@H]1CCCN1C` [II-135] returned a concentration for half-maximal inhibition (IC50) of 29 nM.
